The text below walks through data of patent US20030083237A1, “Anti-angiogenic peptides for cancer treatment” (priority 2001, published 2003).

This assay relates to BCE cells (Bovine Capillary Endothelial cells). Format: cell-based. The conditions noted are these: for inhibiting the growth of BCE cells (in-vitro inhibition studies, FIG. 2): result in words. The method, then: The inhibition of said peptides on the endothelial cells was performed on BCE cells (Bovine Capillary Endothelial cells) as shown in Example 9. The inhibition of said peptide on the endothelial cells was performed on BCE cells (Folkman et al, Proceedings of the National Academy of Sciences USA. 76: 5217-5221 (1979)). The medium contains 90% DMEM (Dulbecco's Modified Eagle Medium), 10% FBS (fetal bovine serum), and 2 ng/mL of bFGF (basic fibroblast growth factor). A 24-well platelet was used for the growth of the BCE cells. To each well, 8,000-10,000 cells and 0.5 mL of the medium were added. The medium in each of the test wells was replaced by medium containing P1, P2, P3, P4, P5, P6, P7, or AK38 after 12 hours and continue to grow 5-7 days at 37° C. the BCE cells, in comparison to the control samples, to evaluate the inhibition on the growth of endothelial cells. The concentration inhibiting 50% of the cell growth is defined as IC50. […] (FIG. 6)

Ends that are not written are not given here. Peptide text beside a SMILES is read from it.

On to “IVPSLGPPSEQD [Peptide P1, protected form of peptide {1} of AK38 kringle]”, for which the “inhibiting the growth of BCE cells (in-vitro inhibition studies, FIG. 2)” value (“inhibiting the growth of BCE cells” below) is “none of the four peptides (P1, P2, P6, and P7) is significantly effective”.
Turning to “QQWAAQEPHRHSTFIPGTNKWAGLEKNY [Peptide P3, protected form of peptide {3} of AK38 kringle]”, the “inhibiting the growth of BCE cells” value is recorded as “minor inhibition effect”.
As usually defined, the IC50 is the midpoint of a concentration-inhibition curve. Turning to `CSCC[C@H](NC(=O)[C@@H](NC(=O)[C@H](Cc1ccc(O)cc1)NC(C)=O)[C@@H](C)O)C(=O)N[C@@H](CC(N)=O)C(=O)N1CCC[C@H]1C(=O)N[C@@H](CCCNC(=N)N)C(=O)N[C@@H](CCCCN)C(=O)N[C@@H](CC(C)C)C(=O)N[C@@H](Cc1ccccc1)C(=O)N[C@@H](CC(=O)O)C(=O)N[C@@H](Cc1ccc(O)cc1)C(N)=O` [Peptide P5, Tyr-Thr-Met-Asn-Pro-Arg-Lys-Leu-Phe-Asp-Tyr] (Ac-YTMNPRKLFDY-NH2), half-maximal inhibition (IC50) was put at 45 nM and the “inhibiting the growth of BCE cells” value was “very effective”.
For “Asp-Ile-Pro-Leu (DIPL; printed: Asp-Ile-Pro-Leu) [Peptide P6, protected form of peptide {6} of AK38 kringle]”, the “inhibiting the growth of BCE cells” value is “none of the four peptides (P1, P2, P6, and P7) is significantly effective”.
With `CC[C@H](C)[C@H](NC(=O)[C@H](CC(=O)O)NC(=O)CNC(=O)[C@H](CC(=O)O)NC(=O)[C@@H]1CCCN1C(=O)[C@H](CC(N)=O)NC(=O)[C@H](CCCNC(=N)N)NC(C)=O)C(=O)N[C@@H](CC(N)=O)C(=O)NCC(=O)N1CCC[C@H]1C(=O)N[C@@H](Cc1c[nH]c2ccccc12)C(N)=O` [Peptide P4, Arg-Asn-Pro-Asp-Gly-Asp-Ile-Asn-Gly-Pro-Trp] (Ac-RNPDGDINGPW-NH2), the IC50 is 100 nM and the “inhibiting the growth of BCE cells” value is reported as “very effective”.
As to “MFGNGKGYRGKKATTVTGTP [Peptide P2, protected form of peptide {2} of AK38 kringle]”, the “inhibiting the growth of BCE cells” value is “none of the four peptides (P1, P2, P6, and P7) is significantly effective”.
In the case of “ASSSFD [Peptide P7, protected form of peptide {7} of AK38 kringle]”, the “inhibiting the growth of BCE cells” value is “none of the four peptides (P1, P2, P6, and P7) is significantly effective”.
